Laboratory results: patent publication US11123354B2, “Method for the treatment of osteoarthritis” (ABIOGEN PHARMA S.P.A., priority 2016, dated 2021)

Assay: Pharmacokinetics and knee joint localization of 14C-Chlodronate after single intra-articular injection
Assay type: in vivo, rat
Details: for residual concentration in femoral articular cartilage / residual concentration in femoral articular cartilage as % of the value measured at t=30 minutes: first order exponential approximation; for radioactivity in Femoral Articular Cartilage / radioactivity in Tibial Articular Cartilage: osteoarthritic rats, single i.a. 0.1 mg (2 mg/ml)
Procedure: In this study the pharmacokinetics of ^14C-Chlodronate was evaluated, and the localization of the labeled compound in the knee joint following a single intra-articular injection of 0.1 mg of ^14C-Chlodronate, administered as aqueous solution in a concentration of 2 mg/ml, in sham and osteoarthritic rat models was verified.
The pharmacokinetic parameters of ^14C-Chlodronate were determined by measuring the radioactivity of blood samples collected at different timepoints from the time of injection.
The localization of the labeled compound in the knee joint was determined by leg x-rays. The fitting of radioactivity concentrations, expressed in μCi/g, was performed by using standard curves.

[1] = about two weeks after the injection
[2] = osteoarthritis rat model, 30 minutes from the injection

In the case of `O=P(O)(O)[14C](Cl)(Cl)P(=O)(O)O` [^14C-Chlodronate], the “radioactivity mean value in the cartilage” value (168 hours (7 days) after the injection) is reported as “about 25 μCi/g”, the “radioactivity in cartilage as % of the value found half an hour after the injection” value (168 hours after the injection) is reported as “more than 62%” and the “residual concentration in femoral articular cartilage” value (about 1 month after injection) is reported as “about 8.78 μCi/g”. The “residual concentration in femoral articular cartilage as % of the value measured at t=30 minutes” value (about 1 month after injection) was “about 24.27%”, the “residual concentration in femoral articular cartilage” value [1] was “about 18.92 μCi/g” and the “residual concentration in femoral articular cartilage as % of the value measured at t=30 minutes” value [1] was “about 44.36%”. The “concentration in both femoral and tibial cartilage relative to the value measured at t=30 minutes” value (about two weeks after the injection, first order exponential approximation of Table 7 data) was over 40%, the “concentration of 14C-Chlodronate in the blood” value (after a few hours from the injection) was “very modest, practically negligible” and the “radioactivity in Femoral Articular Cartilage” value (t = 30 minutes) was 42.649 μCi/g. For the same molecule, the “radioactivity in Tibial Articular Cartilage” value (t = 30 minutes) was 36.935 μCi/g, the “radioactivity in Femoral Articular Cartilage” value (t = 6 hours) was 36.163 μCi/g and the “radioactivity in Tibial Articular Cartilage” value (t = 6 hours) was 27.299 μCi/g. The “radioactivity in Femoral Articular Cartilage” value (t = 24 hours) was 34.712 μCi/g, the “radioactivity in Tibial Articular Cartilage” value (t = 24 hours) was 27.840 μCi/g and the “radioactivity in Femoral Articular Cartilage” value (t = 72 hours) was 25.561 μCi/g. For the same molecule, the “radioactivity in Tibial Articular Cartilage” value (t = 72 hours) was 22.331 μCi/g, the “radioactivity in Femoral Articular Cartilage” value (t = 168 hours) was 28.020 μCi/g and the “radioactivity in Tibial Articular Cartilage” value (t = 168 hours) was 21.165 μCi/g. The “radioactivity concentration in the articular cartilage” value [2] was “about 40 μCi/g” and the “radioactivity concentration in the synovial cavity and in the femoral and tibial bone” value [2] was “lower than 1 μCi/g”.
